Assay results reported in patent US20230321199A1, “USES OF PTHrP ANALOGUE IN REDUCING FRACTURE RISK” (Radius Health, Inc., priority 2015, published 2023).
Like-named read-outs stand apart in the source and are kept apart here. Marks after values point to notes of the source that are not given here.

Legend:
[1] = test system: postmenopausal women with osteoporosis; conditions: in vivo
Protocol: (§2) Safety evaluations performed in the ACTIVE trial included physical examinations, vital signs, 12-lead electrocardiograms, or ECGs, clinical laboratory tests and monitoring, and recording of adverse events. Specific safety assessments included pre-dose and post-dose (four hours) determination of serum calcium, determination of creatinine clearance, post-dose ECG assessments at selected visits, and assessments of postural hypotension (60 minutes post-dose) at selected clinic visits.
(§3) The ACTIVE trial also evaluated several potential safety measures, including blood calcium levels, orthostatic hypotension, nausea, dizziness, and injection-site reactions.

[2] = test system: postmenopausal women with osteoporosis; conditions: in vivo; remark: listed apart in the source
[3] = test system: postmenopausal women with osteoporosis; experiment: ACTIVE trial: adverse events; conditions: 18-month ACTIVE trial
Protocol: as §2, §3

[4] = test system: postmenopausal women with osteoporosis; experiment: ACTIVE phase 3 trial: fracture rates and fracture risk over 18 months; format: in vivo, human
Protocol: The ACTIVE phase 3 fracture prevention trial was conducted for abaloparatide in postmenopausal women with osteoporosis who were otherwise healthy. The enrolled subjects were treated with 80 micrograms (μg) of abaloparatide, a matching placebo, or the approved daily dose of 20 μg of teriparatide for 18 months. The ACTIVE trial evaluated fracture rates, fracture risks, BMD, and bone turnover biomarkers (e.g., CTX and P1NP) in all patient groups.
Fracture risk reduction and hazard ratio (HR) were derived from Kaplan-Meier (KM) curve.
The ACTIVE pivotal Phase 3 fracture prevention trial for the PTHrP analogue abaloparatide, Study BA058-05-003 (see ClinicalTrials.gov), was a randomized, double-blind, placebo-controlled trial in postmenopausal osteoporotic women randomized to receive daily doses of one of the following for 18 months: 80 micrograms (μg) of abaloparatide; a matching placebo; or the approved daily dose of 20 μg of teriparatide. Treatment with abaloparatide at a daily dose of 80 μg or placebo remained blinded to all parties throughout the study. Teriparatide used was a proprietary prefilled drug and device combination that could not be repackaged. Therefore, its identity could not be blinded to treating physicians and patients once use began. Study medication was self-administered daily by subcutaneous injection for a maximum of 18 months. All enrolled patients also received calcium and vitamin D supplementation from the time of enrollment until the end of the treatment period. It was recommended to patients that they also continue these supplements through the one-month follow-up period.
The study enrolled otherwise healthy ambulatory women aged 49 to 86 (inclusive) who had been postmenopausal for at least five years, met the study entry criteria, and had provided written informed consent. […] All patients were to be in good general health as determined by medical history, physical examination (including vital signs), and clinical laboratory testing. This study population contained a patient population reflective of the type of severe osteoporosis patients that specialists would be expected to treat in their practices.
(§1) As set forth in the ACTIVE protocol, the primary efficacy endpoint was the number of patients treated with abaloparatide with incident vertebral fractures at the end of treatment as compared to those who received placebo. The pre-specified secondary efficacy parameters included, among other endpoints, reduction in the incidence/risk of non-vertebral fractures; changes in BMD of the spine, hip, and femoral neck from baseline to end of treatment as assessed by DXA and as compared to teriparatide; and the number of hypercalcemic events in abaloparatide treated patients when compared to teriparatide at end of treatment.

[5] = test system: postmenopausal women with osteoporosis; experiment: ACTIVE trial: BMD of lumbar spine, total hip, femoral neck by DXA; format: in vivo, human
Protocol: BMD and bone turnover biomarkers (CTX and P1NP) were also evaluated in all patient groups to compare the effects of abaloparatide versus teriparatide.
as §1
Comparative analyses of abaloparatide versus teriparatide were completed on the following BMD secondary endpoints using a Mixed-Effect Model for Repeated Measures (MMRM) method, shown in Table 4 below:
Comparative analyses of the PTHrP analogues abaloparatide and teriparatide were completed on the following BMD secondary endpoints using an ANCOVA approach, shown in Table 5 below: […]

[6] = test system: postmenopausal women with osteoporosis; experiment: Phase 2 dose-finding trial: 24-week BMD by DXA; format: in vivo, human; conditions: 24 weeks; 20 μg daily SC
Text: Healthy postmenopausal women between the ages of 55 to 85 (based on a 5-year history of amenorrhea and an elevated serum level of FSH) were enrolled in the study if they met one of the following the following definitions of osteoporosis: • 1) DXA-derived BMD T-score≤−2.5 at the lumbar spine or femoral neck or total hip. • 2) DXA-derived BMD T-score ≤−2.0 with a history of a prior low trauma forearm, humerus, vertebral, sacral, pelvic, hip, femoral, or tibial fracture within the past five years. • 3) DXA-derived BMD T-score ≤−2.0 with an additional osteoporosis risk factor such as age >65 years or strong maternal history of osteoporosis (defined as a fracture related to osteoporosis or osteoporosis itself determined by BMD criteria).
Dual X-ray absorptiometry: DXA scans were obtained at each local site and then sent to a central imaging reader (BioClinica Inc. Newton, PA) where they underwent a quality control review and then analyzed according to each manufacturers guidelines. Scans performed during the treatment period on the same instrument used for the baseline scan were acquired. Each study site performed Instrument Quality Control over time (instrument standardization and phantom calibration) that was reviewed by the central reader.

[7] = test system: postmenopausal women with osteoporosis; experiment: Phase 2 trial: safety, serum calcium, antibody formation; conditions: 24 weeks; 20 μg daily SC
[8] = test system: postmenopausal women with osteoporosis; experiment: Phase 2 trial 24-week extension (48 weeks): BMD and tolerability; conditions: 20 μg daily SC

For `CC[C@H](C)[C@H](NC(=O)[C@H](CO)NC(=O)[C@H](CCCCN)NC(=O)CNC(=O)[C@H](CCCCN)NC(=O)[C@H](CC(=O)O)NC(=O)[C@H](Cc1cnc[nH]1)NC(=O)[C@H](CC(C)C)NC(=O)[C@H](CC(C)C)NC(=O)[C@H](CCC(N)=O)NC(=O)[C@H](Cc1cnc[nH]1)NC(=O)[C@H](CCC(=O)O)NC(=O)[C@H](CO)NC(=O)[C@@H](NC(=O)[C@H](C)N)C(C)C)C(=O)N[C@@H](CCC(N)=O)C(=O)N[C@@H](CC(=O)O)C(=O)N[C@@H](CC(C)C)C(=O)N[C@@H](CCCNC(=N)N)C(=O)N[C@@H](CCCNC(=N)N)C(=O)N[C@@H](CCCNC(=N)N)C(=O)N[C@@H](CCC(=O)O)C(=O)N[C@@H](CC(C)C)C(=O)N[C@@H](CC(C)C)C(=O)N[C@@H](CCC(=O)O)C(=O)N[C@@H](CCCCN)C(=O)N[C@@H](CC(C)C)C(=O)N[C@@H](CC(C)C)C(=O)NC(C)(C)C(=O)N[C@@H](CCCCN)C(=O)N[C@@H](CC(C)C)C(=O)N[C@@H](Cc1cnc[nH]1)C(=O)N[C@H](C(=O)N[C@@H](C)C(N)=O)[C@@H](C)O` [abaloparatide, [Glu^22,25, Leu^23,28,31, Aib^29, Lys^26,30]hpTHrP(1-34)NH2], which “AE: Arthralgia” value [1] is on record?
The value was 8.6%.

And the “AE: Back Pain” value [1]?
Its value is 8.5%.

What about the “AE: Constipation” value [1] of the same compound?
Its value is 4.5%.

What about the “AE: Dizziness” value [1] of the same compound?
Its value is 10.0%‡.

And the “AE: Headache” value [1]?
The value was 7.5%.

What about the “AE: Hypercalcemia (serum albumin-corrected calcium value ≥ 10.7 mg/dL)” value [1] of the same compound?
The value was 3.41%^†.

And the “AE: Hypertension” value [1]?
The value was 7.2%.

What about the “AE: Nasopharyngitis” value [1] of the same compound?
Its value is 5.8%.

What about the “AE: Nausea” value [1] of the same compound?
The value was 8.3%‡.

And the “AE: Pain in extremity” value [1]?
Its value is 4.9%.

And the “AE: Palpitations” value [1]?
Its value is 5.1%‡.

What about the “AE: Upper respiratory tract infection” value [1] of the same compound?
Its value is 8.3%.

What about the “AE: Urinary tract infection” value [1] of the same compound?
The value was 5.2%.

What about the “anti-abaloparatide antibody titer in positive patients” value [2] of the same compound?
Its value is ≤ 1:20.

And the “AE: Influenza” value [3]?
The value was 6.3%.

How did the “hazard ratio, incident clinical fractures, as compared to placebo” value [4] turn out when `CC[C@H](C)[C@H](NC(=O)[C@H](CCC(=O)O)NC(=O)[C@H](CO)NC(=O)[C@@H](NC(=O)[C@@H](N)CO)C(C)C)C(=O)N[C@@H](CCC(N)=O)C(=O)N[C@@H](CC(C)C)C(=O)N[C@@H](CCSC)C(=O)N[C@@H](Cc1cnc[nH]1)C(=O)N[C@@H](CC(N)=O)C(=O)N[C@@H](CC(C)C)C(=O)NCC(=O)N[C@@H](CCCCN)C(=O)N[C@@H](Cc1cnc[nH]1)C(=O)N[C@@H](CC(C)C)C(=O)N[C@@H](CC(N)=O)C(=O)N[C@@H](CO)C(=O)N[C@@H](CCSC)C(=O)N[C@@H](CCC(=O)O)C(=O)N[C@@H](CCCN=C(N)N)C(=O)N[C@H](C(=O)N[C@@H](CCC(=O)O)C(=O)N[C@@H](Cc1c[nH]c2ccccc12)C(=O)N[C@@H](CC(C)C)C(=O)N[C@@H](CCCN=C(N)N)C(=O)N[C@@H](CCCCN)C(=O)N[C@@H](CCCCN)C(=O)N[C@@H](CC(C)C)C(=O)N[C@@H](CCC(N)=O)C(=O)N[C@@H](CC(=O)O)C(=O)N[C@H](C(=O)N[C@@H](Cc1cnc[nH]1)C(=O)N[C@@H](CC(N)=O)C(=O)N[C@@H](Cc1ccccc1)C(=O)O)C(C)C)C(C)C` [teriparatide, hPTH(1-34)] was run?
Its value is 0.71.

What about the “hazard ratio, non-vertebral fractures, as compared to placebo” value [4] of the same compound?
Its value is 0.72.

What about the “fracture rate, non-vertebral fractures (rate given with hazard ratio)” value ([4]; placebo group 4.7%) of the same compound?
The value was 3.3%.

And the “fracture rate, incident clinical fractures (rate given with hazard ratio)” value ([4]; placebo group 8.3%)?
Its value is 4.8%.

And the “Mean Percent Change In BMD From Baseline (ANCOVA), Femoral Neck” value ([5]; 6 mo)?
Its value is 0.80%*.

What about the “Mean Percent Change in BMD From Baseline (MMRM), Femoral Neck” value ([5]; 6 mo) of the same compound?
Its value is 0.87%*.

What about the “Mean Percent Change In BMD From Baseline (ANCOVA), Lumbar Spine” value ([5]; 12 mo) of the same compound?
The value was 7.40%*.

What about the “subjects with BMD increases of >3% at all three sites” value ([5]; 12 months) of the same compound?
Its value is 19.8%.

What about the “subjects with BMD increases of >3% at all three sites” value ([5]; 18 months) of the same compound?
The value was 32.0%.

What about the “subjects with increased BMD of >3% at all three sites (lumbar spine, total hip, femoral neck)” value ([5]; month 6) of the same compound?
The value was 6.5%.

What about the “femoral neck BMD increase (±SD)” value [6] of the same compound?
Its value is 1.1±4.6%.

What about the “total hip BMD increase (±SD)” value [6] of the same compound?
Its value is 0.5±3.9%.

What about the “AE: Arthralgia” value [3] of the same compound?
The value was 8.6%.

And the “AE: Back Pain” value [3]?
The value was 7.2%‡.

What about the “AE: Constipation” value [3] of the same compound?
The value was 4.2%.

And the “AE: Dizziness” value [3]?
Its value is 7.3%.

And the “AE: Headache” value [3]?
Its value is 6.2%.

What about the “AE: Hypercalciuria” value [3] of the same compound?
Its value is 12.5%‡.

And the “AE: Hypertension” value [3]?
The value was 5.0%.

What about the “AE: Influenza” value [3] of the same compound?
Its value is 4.2%.

And the “AE: Nasopharyngitis” value [3]?
Its value is 6.5%.

What about the “AE: Nausea” value [3] of the same compound?
Its value is 5.1%‡.

And the “AE: Pain in extremity” value [3]?
The value was 5.1%.

What about the “AE: Palpitations” value [3] of the same compound?
Its value is 1.6%‡.

What about the “AE: Upper respiratory tract infection” value [3] of the same compound?
The value was 8.9%.

What about the “AE: Urinary tract infection” value [3] of the same compound?
The value was 5.0%.

And the incidence of dizziness [7]?
The incidence of dizziness was 4%.

What about the “femoral neck BMD increase” value ([8]; 48 weeks) of the same compound?
Its value is 2.2%.

What about the “lumbar spine BMD increase” value ([8]; 48 weeks) of the same compound?
Its value is 8.6%.

And the “total hip BMD increase” value ([8]; 48 weeks)?
Its value is 1.3%.

And the “treatment-related TEAEs” value ([8]; extension study)?
Its value is 21%.
